Test results reported in ChEMBL document CHEMBL1201862, “PubChem BioAssay data set” (2004).
Where “and” joins values, the source holds several entries; their conditions need not be identical. Identical values can stand only once.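 These data come from cells grown in 96-well plates and exposed to compound for 48 hours at five concentrations. The concentration for 50% growth inhibition is given as GI50.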 Calls of active or inactive are those of the source. Cut-off read from the data, not from the text of the source: active = GI50 up to about 1.1 µM and inactive = higher.

Legend:
Test in all cases: growth of human tumour cells (NCI), 48 h
[1] = system: A549
[2] = system: ACHN
[3] = system: HCC 2998
[4] = system: HCT-15
[5] = system: HOP-92
[6] = system: LOX IMVI
[7] = system: OVCAR-5
[8] = system: RPMI-8226
[9] = system: SF-295
[10] = system: SK-MEL-2
[11] = system: SK-OV-3
[12] = system: SNB-75
[13] = system: SW-620
[14] = system: UACC-62
[15] = system: CCRF-CEM

S=c1sc2c(Cl)ncnc2n1-c1ccccc1
GI50 [1]: 28.8 µM (inactive) | GI50 [2]: 16.5 µM (inactive) | GI50 [3]: 17.1 µM (inactive) | GI50 [4]: 15.1 µM | GI50 [5]: 19.7 µM (inactive) | GI50 [6]: 4.28 µM (inactive) | GI50 [7]: 22.9 µM (inactive) | GI50 [8]: 23.8 µM (inactive) | GI50 [9]: 12.8 µM (inactive) | GI50 [10]: 8.81 µM (inactive) | GI50 [11]: 20 µM (inactive) | GI50 [12]: 14 µM (inactive) | GI50 [13]: 17.4 µM (inactive) | GI50 [14]: 9.62 µM (inactive)

CSC1CC2C(CC1(C)SC)C2(C)C (centres undefined)
GI50 [1]: 32.7 µM (inactive) | GI50 [2]: > 100 µM (inactive) | GI50 [15]: 28.2 µM (inactive) | GI50 [3]: 87.1 µM (inactive) | GI50 [4]: 51.3 µM | GI50 [5]: 16.3 µM (inactive) | GI50 [6]: 30.7 µM (inactive) | GI50 [7]: 40.8 µM (inactive) | GI50 [8]: 24.3 µM (inactive) | GI50 [9]: 30.8 µM (inactive) | GI50 [10]: 23.2 µM (inactive) | GI50 [11]: 39.9 µM (inactive) | GI50 [12]: 23.2 µM (inactive) | GI50 [13]: > 100 µM (inactive) | GI50 [14]: 60.7 µM (inactive)

CC(=O)O[C@H]1CCC2[C@@H]3CCC4=C(O)c5nocc5C[C@]4(C)C3CC[C@@]21C (some centres undefined)
GI50 [1]: > 100 µM (inactive) | GI50 [2]: > 100 µM (inactive) | GI50 [15]: > 100 µM (inactive) | GI50 [4]: > 100 µM | GI50 [5]: > 100 µM (inactive) | GI50 [6]: > 100 µM (inactive) | GI50 [7]: > 100 µM (inactive) | GI50 [8]: > 100 µM (inactive) | GI50 [9]: > 100 µM (inactive) | GI50 [10]: > 100 µM (inactive) | GI50 [11]: > 100 µM (inactive) | GI50 [12]: > 100 µM (inactive) | GI50 [13]: > 100 µM (inactive) | GI50 [14]: > 100 µM (inactive)

NC(=O)/C(=N\NC(=O)C[n+]1ccccc1)C1NC(=O)NC1=O (centres undefined)
GI50 [1]: > 100 µM (inactive) | GI50 [2]: > 100 µM (inactive) | GI50 [15]: > 100 µM (inactive) | GI50 [3]: > 100 µM (inactive) | GI50 [4]: > 100 µM | GI50 [5]: > 100 µM (inactive) | GI50 [6]: > 100 µM (inactive) | GI50 [7]: > 100 µM (inactive) | GI50 [8]: > 100 µM (inactive) | GI50 [9]: > 100 µM (inactive) | GI50 [10]: > 100 µM (inactive) | GI50 [11]: > 100 µM (inactive) | GI50 [12]: > 100 µM (inactive) | GI50 [13]: 33.6 µM (inactive) | GI50 [14]: > 100 µM (inactive)

O=c1[nH]cnc2c1nnn2C1C=C(CO)C(O)C1O (centres undefined)
GI50 [1]: > 100 µM (inactive) | GI50 [2]: > 100 µM (inactive) | GI50 [15]: > 100 µM (inactive) | GI50 [3]: > 100 µM (inactive) | GI50 [4]: > 100 µM | GI50 [5]: > 100 µM (inactive) | GI50 [6]: 30.8 µM (inactive) | GI50 [7]: > 100 µM (inactive) | GI50 [8]: > 100 µM (inactive) | GI50 [9]: > 100 µM (inactive) | GI50 [10]: > 100 µM (inactive) | GI50 [11]: > 100 µM (inactive) | GI50 [12]: > 100 µM (inactive) | GI50 [13]: > 10 µM (inactive) | GI50 [14]: > 100 µM (inactive)

Cc1ccc(S(=O)(=O)OCC23CCC(C4CC42)C2CC23)cc1 (centres undefined)
GI50 [1]: 80.4 µM (inactive) | GI50 [2]: > 100 µM (inactive) | GI50 [15]: 22.8 µM (inactive) | GI50 [3]: > 100 µM (inactive) | GI50 [4]: > 100 µM | GI50 [5]: 29.2 µM (inactive) | GI50 [6]: > 100 µM (inactive) | GI50 [7]: > 100 µM (inactive) | GI50 [8]: 36.3 µM (inactive) | GI50 [9]: 50.8 µM (inactive) | GI50 [11]: > 100 µM (inactive) | GI50 [13]: > 100 µM (inactive) | GI50 [14]: 65.6 µM (inactive)

COc1cc(/C=C2\NC(=S)C3Cc4c(OC)c(C)c(OC)c(OC)c4C2N3C)c(OC)c(C)c1OC (centres undefined)
GI50 [1]: 50.6 µM (inactive) | GI50 [2]: 48.2 µM (inactive) | GI50 [15]: 38.7 µM (inactive) | GI50 [3]: 69 µM (inactive) | GI50 [5]: 9.38 µM (inactive) | GI50 [6]: 48 µM (inactive) | GI50 [7]: > 100 µM (inactive) | GI50 [8]: 25.6 µM (inactive) | GI50 [9]: 50.5 µM (inactive) | GI50 [10]: 36.2 µM (inactive) | GI50 [11]: > 100 µM (inactive) | GI50 [12]: > 100 µM (inactive) | GI50 [13]: 59.4 µM (inactive) | GI50 [14]: 98.4 µM (inactive)

CCN(CC)CC(C)(C)C(=O)/C=C/c1cccc(/C=C/C(=O)C(C)(C)CN(CC)CC)c1
GI50 [1]: 1.33 µM (inactive) | GI50 [2]: 1.15 µM (inactive) | GI50 [15]: 0.337 µM (active) | GI50 [3]: 1.22 µM (inactive) | GI50 [4]: 0.461 µM | GI50 [5]: 0.504 µM (active) | GI50 [6]: 0.184 µM (active) | GI50 [7]: 1.63 µM (inactive) | GI50 [8]: 2.06 µM (inactive) | GI50 [9]: 1.74 µM (inactive) | GI50 [11]: 1.45 µM (inactive) | GI50 [12]: 0.176 µM (active) | GI50 [13]: 0.187 µM (active) | GI50 [14]: 1.74 µM (inactive)

Cc1ccccc1/N=N/c1c(-c2ccccc2)nn(C(=O)CC(=O)Nc2cccc(Cl)c2)c1-c1ccccc1
GI50 [1]: > 10 µM (inactive) | GI50 [2]: 23 µM (inactive) | GI50 [15]: 15.8 µM (inactive) | GI50 [3]: 22.2 µM (inactive) | GI50 [4]: 16.9 µM | GI50 [5]: 26.3 µM (inactive) | GI50 [6]: 15.3 µM (inactive) | GI50 [7]: 16.7 µM (inactive) | GI50 [8]: 12.1 µM (inactive) | GI50 [9]: 22 µM (inactive) | GI50 [10]: 12.7 µM (inactive) | GI50 [11]: 27.7 µM (inactive) | GI50 [12]: 28.2 µM (inactive) | GI50 [13]: 3.16 µM (inactive) | GI50 [14]: 22 µM (inactive)

C=CC1(C(=O)O)CCC(C(C)(C)C)CC1 (centres undefined)
GI50 [1]: > 100 µM (inactive) | GI50 [2]: > 100 µM (inactive) | GI50 [3]: > 100 µM (inactive) | GI50 [4]: > 100 µM | GI50 [5]: > 100 µM (inactive) | GI50 [7]: > 100 µM (inactive) | GI50 [8]: > 100 µM (inactive) | GI50 [9]: > 100 µM (inactive) | GI50 [10]: > 100 µM (inactive) | GI50 [11]: > 100 µM (inactive) | GI50 [12]: > 100 µM (inactive) | GI50 [13]: > 100 µM (inactive) | GI50 [14]: > 100 µM (inactive)

CC(=O)OCC12CC(CC1OC(C)=O)c1ccccc12 (centres undefined)
GI50 [1]: > 100 µM (inactive) | GI50 [2]: > 100 µM (inactive) | GI50 [15]: > 100 µM (inactive) | GI50 [3]: > 100 µM (inactive) | GI50 [4]: > 100 µM | GI50 [5]: > 100 µM (inactive) | GI50 [6]: > 100 µM (inactive) | GI50 [7]: > 100 µM (inactive) | GI50 [8]: > 100 µM (inactive) | GI50 [9]: > 100 µM (inactive) | GI50 [11]: > 100 µM (inactive) | GI50 [13]: > 100 µM (inactive) | GI50 [14]: > 100 µM (inactive)

C1=Cc2nc1c(-c1ccncc1)c1ccc([n-]1)c(-c1ccncc1)c1nc(c(-c3ccncc3)c3ccc([n-]3)c2-c2ccncc2)C=C1.[Zn+2]
GI50 [1]: > 100 µM (inactive) | GI50 [2]: > 100 µM (inactive) | GI50 [15]: > 100 µM (inactive) | GI50 [3]: > 100 µM (inactive) | GI50 [4]: > 100 µM | GI50 [5]: > 100 µM (inactive) | GI50 [6]: > 100 µM (inactive) | GI50 [7]: > 100 µM (inactive) | GI50 [8]: > 100 µM (inactive) | GI50 [9]: > 100 µM (inactive) | GI50 [10]: > 100 µM (inactive) | GI50 [11]: > 100 µM (inactive) | GI50 [12]: > 100 µM (inactive) | GI50 [13]: > 100 µM (inactive) | GI50 [14]: > 100 µM (inactive)

O=c1ncccn1[C@@H]1O[C@H](CO)[C@@H](O)[C@@H]1F
GI50 [1]: > 100 µM (inactive) | GI50 [2]: > 100 µM (inactive) | GI50 [3]: > 100 µM (inactive) | GI50 [5]: > 100 µM (inactive) | GI50 [6]: > 100 µM (inactive) and > 59.2 µM (inactive) | GI50 [7]: > 100 µM (inactive) | GI50 [8]: > 100 µM (inactive) | GI50 [9]: > 100 µM (inactive) | GI50 [10]: > 100 µM (inactive) | GI50 [11]: > 100 µM (inactive) | GI50 [12]: > 100 µM (inactive) and > 50.9 µM (inactive)

CCOC(=O)C(Cc1cn(S(=O)(=O)c2ccccc2)c2ccccc12)(NC(C)=O)C(=O)OCC
GI50 [1]: 36.2 µM (inactive) | GI50 [2]: 32.3 µM (inactive) | GI50 [15]: 25.1 µM (inactive) | GI50 [3]: 34 µM (inactive) | GI50 [4]: 42.5 µM | GI50 [5]: 19.8 µM (inactive) | GI50 [7]: > 100 µM (inactive) | GI50 [8]: 13.1 µM (inactive) | GI50 [9]: 29.1 µM (inactive) | GI50 [10]: 30.6 µM (inactive) | GI50 [12]: 8.18 µM (inactive) | GI50 [13]: 54.2 µM (inactive) | GI50 [14]: 27.9 µM (inactive)
